Consider one compound from patent publication US20210196652A1, “USE OF CYSTEAMINE AND DERIVATIVES THEREOF TO TREAT DYSFUNCTIONAL TEAR SYNDROME (DTS)” (MESHABERASE, LLC, priority 2019, published 2021).

For data set [1] the following is noted: administered for conditions such as cystinosis; available cysteamine products; cited from earlier work.
The test system of data set [2] is intracellular cystine levels in circulating leukocytes. The settings on record: cited from earlier work.
A short description of data set [3]: Schirmer test (filter paper strip in lower fornix) in treated DTS patients. The format is in vivo, human. The settings on record: MMP-positive patients (Patients 1 and 3). From the text:
(§1) Sterile ocular cysteamine drops with a concentration of 0.44% were used in a dosage schedule of one drop per eye, four times per day.
(§2) Four patients were self-treated with cysteamine ocular drops as described above for 30-37 days. Patients were requested to fill out a diary sheet daily and to return weekly for follow-up. Three of the four patients filled out the diary that included a 3-point Likert scale of symptoms, number of times drops were used daily, and a space for other comments. […] Patients were tested for MMP using the INFLAMMADRY test (see Kaufman) and the Schirmer test (in which a filter paper strip is placed in the lower fornix of the eyelid to absorb tears), with and without anesthesia, using Oxford grading (observation of conjunctiva and cornea using BIO-GLO fluorescein strips) at entry, and Schirmer with and without anesthesia on the final visit.

The conditions of data set [4]: cited from earlier work.
Data set [5] is described as follows: Self-treatment of dysfunctional tear syndrome patients with cysteamine ocular drops: symptom diary (3-point Likert scale), weekly interviews, patient reports. The format is in vivo, human.
Source text: as §1, §2
Four patients (Patients 1, 2, 3, and 4) were tested. […] Among the patients testing MMP-positive, there was an improvement in Likert-scale and other comments. […] Patients 1 and 3 returned for 4 weekly visits; Patient 2 returned for 5 weekly visits.
Patient 4 was not tested for MMP, but presented with symptoms of DTS, including years of pain and poor response to other treatments. On the theory the MMP is involved or a causative factor in recurrent epithelial erosion and dry eye, they were treated using the same regimen noted above for Patients 1, 2, and 3. Following treatment, Patient 4 reports being “cured,” and is apparently free of significant symptoms.

The mark [6] stands for this setting: children with cystinosis, enteral administration.

As to `NCCS` [cysteamine, Cysteamine (HS—CH2—CH—2—NH2)], in data set [1], the ocular adverse effects entry was “slinging and stippling erosion of the cornea”. The “intracellular cystine levels in circulating leukocytes” value in data set [2] (Dohil et al. 2006) is listed as “lowering of intracellular cystine levels”. Moreover, in data set [2] (setting [6]), the “lowering of leukocyte cystine levels” value is “prolonged efficacy” and the plasma cysteamine levels result is given as “increased plasma cysteamine levels”. For the same compound, in data set [3], the “Schirmer tests at the end of the study” value is reported as “improvement in Schirmer tests”. For the same compound, in data set [4] (high systemic dosing levels and frequencies, CYSTAGON package insert), the unpleasant side effects entry was “gastrointestinal distress and body odor”. Besides, in data set [4] (systemic administration), the “metabolism and clearance from the body” value is reported as “converted to taurine in a matter of hours”. For the same compound, in data set [5] (MMP positive patients, 0.44% drops, one drop per eye, four times per day), the “objective and subjective symptoms of Dry Eye Disease (DTS, dry eye, keratitis sicca)” value is reported as “decreases”. For the same compound, the “Likert-scale (3-point scale of symptoms) and other diary comments” value in data set [5] (MMP-positive patients (Patients 1 and 3), 0.44% drops four times per day, 30-37 days) was “improvement”. The “symptoms reported at interview during each weekly visit” value in data set [5] (MMP-positive patients (Patients 1 and 3), FIGS. 1 and 2) is recorded as “changes in symptoms indicative of improvement”. Besides, the “need for artificial tears after starting treatment” value in data set [5] (Patient 2, MMP-negative) is listed as “able to go without artificial tears for a majority of the four weeks”. In addition, the “3-point Likert scale of symptoms” value in data set [5] (Patient 2, MMP-negative, no objective findings of DTS) is on record as “did not report changes”. For the same compound, in data set [5] (Patient 4, not tested for MMP, recurrent epithelial erosion and dry eye, same regimen), the “patient-reported outcome following treatment” value was “cured”.
